pIC50: −log10 of the molar value.
Test: Inhibition of recombinant PDK1 (unknown origin) using peptide as substrate

pIC50: < 5.30
SMILES: COc1cc2ncc(C#N)c(Nc3ccc(OCc4ccccn4)c(Cl)c3)c2cc1NC(=O)/C=C/CN(C)C

From BindingDB's records for PubMed 15173008 (Wyeth Research)
